Assay results reported in US8445522B2, “Substituted 2-(4-pyridyl)benzoxazoles, and compositions thereof, for use in arthropod pest control” (Sumitomo Chemical Company, Limited, priority 2009, dated 2013).
Where two headings read alike, the source gives them in different places.

Tests used:
Type in all cases: in vivo
cotton aphids [1] = experiment: Test Example 3: plant foot irrigation of cucumber seedling in plastic cup, cotton aphids inoculated after seven days; conditions: 144 h, read-out: Control value
Experimental: (§1) The formulations were diluted with water so that the concentration of the active ingredient became 500 ppm and thus test diluents were prepared. On the other hand, a plant foot of cucumber seedling (second true leaf development stage) planted in a plastic cup was irrigated with any one of diluents (5 ml). The seedling was kept in a green house of 25° C. for seven days. The cucumber leaves were inoculated with 30 cotton aphids (all stages) and kept in the green house for further six days. Thereafter, the number of survived cotton aphids parasitic on the cucumber leaves was counted, and the control value was calculated by the following equation. Control value(%)={1−(Cb×Tai)/(Cai×Tb)}×100 wherein each character represents the following meaning: Cb: number of insects in non-treated section before treatment Cai: number of insects in non-treated section during observation Tb: number of insects in treated section before treatment Tai: number of insects in treated section during observation

halymorpha halys = experiment: Test Example 7: treated tissue paper with budding soybeans, halymorpha halys mortality; conditions: 168 h
Experimental: Formulations were prepared by the method described in Formulation Example 1 with respect to each of the active compound 13, the active compound 15, the active compound 18, the active compound 35, the active compound 37, the active compound 44, the active compound 65, the active compound 68 and the active compound 82. The formulations were diluted with water so that the concentration of the active ingredient became 100 ppm and thus test diluents were prepared.
On the other hand, a tissue paper placed in an aluminum cup was irrigated with any one of the above-mentioned diluents (5 ml). The tissue paper was placed in a polyethylene cup together with three budding soybeans. In the polyethylene cup, ten halymorpha halys were released, and the polyethylene cup was lidded by a polyethylene lid. Seven days after the releasing of the insects, the number of survived insects was counted, and the mortality was calculated by the following equation. Mortality(%)=(number of dead insects/number of insects to be tested)×100

cotton aphids [2] = experiment: Test Example 2: plant foot irrigation of cucumber seedling in urethane mat, cotton aphids inoculated one day after treatment; conditions: 168 h, read-out: Control value
Experimental: as §1, with “urethane mat” for “plastic cup”, “One day after the treatment, the” for “The seedling was kept in a green house of 25° C. for seven days. The”, “stages). Further seven days after,” for “stages) and kept in the green house for further six days. Thereafter,”

rice brown planthopper [3] = experiment: Test Example 6: plant foot irrigation of rice plant seedling, rice brown planthopper released after seven days; conditions: Nilaparvata lugens, 144 h, read-out: Control value
Experimental: The formulations were diluted with water so that the concentration of the active ingredient became 500 ppm and thus test diluents were prepared. On the other hand, a plant foot of rice plant seedling (two weeks after seeding, second leaf development stage) planted in a plastic cup was irrigated with any one of diluents (5 ml). The seedling was kept in a green house of 25° C. for seven days. Thirty first-instars of rice brown planthopper were released to the seedling, which was kept in the green house at 25 C for six days. Thereafter, the number of survived rice brown planthopper parasitic on rice plant leaves was counted, and the control value was calculated by the following equation. Control value(%)={1−(Cb×Tai)/(Cai×Tb)}×100 wherein each character represents the following meaning: Cb: number of insects in non-treated section before treatment Cai: number of insects in non-treated section during observation Tb: number of insects in treated section before treatment Tai: number of insects in treated section during observation

[4] = system: cotton aphids (Aphis gossypii Glover); experiment: Test Example 1: test diluent scattered on cucumber seedling inoculated with cotton aphids; conditions: 120 h, read-out: Control value
Experimental: The formulations were diluted with water so that the concentration of the active ingredient became 500 ppm and thus test diluents were prepared. On the other hand, a cucumber seedling (second true leaf development stage) planted in a plastic cup was inoculated with about 30 cotton aphids (Aphis gossypii Glover) and allowed to stand for one day. To the seedling, any one of the diluents (10 ml) was scattered. Five days after the scattering, the number of survived cotton aphids parasitic on the cucumber leaves was counted, and the control value was calculated by the following equation. Control value(%)={1−(Cb×Tai)/(Cai×Tb)}×100 wherein each character represents the following meaning: Cb: the number of insects in non-treated section before treatment Cai: the number of insects in non-treated section during observation Tb: the number of insects in treated section before treatment Tai: the number of insects in treated section during observation

tobacco whitefly = experiment: Test Example 4: test diluent scattered on tomato seedling with hatched tobacco whitefly larvae; conditions: 168 h, read-out: Control value
Experimental: The formulations were diluted with water so that the concentration of the active ingredient became 500 ppm and thus test diluents were prepared. On the other hand, by releasing tobacco whitefly imagos to a tomato seedling planted in a plastic cup to allow them to lay eggs for about 24 hours. The tomato seedling was kept in a green house for eight days. At the stage in which larvae hatched from the laid eggs, any of the test diluents was scattered at the rate of 10 ml/cup. The tomato seedling was kept in the greenhouse at 25° C. for seven days. The number of survived larvae on tomato leaves was counted, and the control value was calculated by the following equation. Control value(%)={1−(Cb×Tai)/(Cai×Tb)}×100 wherein each character represents the following meaning: Cb: number of insects in non-treated section before treatment Cai: number of insects in non-treated section during observation Tb: number of insects in treated section before treatment Tai: number of insects in treated section during observation

rice brown planthopper [5] = experiment: Test Example 5: test diluent scattered on rice plant seedling, rice brown planthopper released; conditions: Nilaparvata lugens, 144 h, read-out: Control value
Experimental: The formulations were diluted with water so that the concentration of the active ingredient became 500 ppm and thus test diluents were prepared. On the other hand, to a rice plant seedling (two weeks after seeding, second leaf development stage) planted in a plastic cup, any one of the diluents (10 ml) was scattered. After the drug solution scattered on the rice plant was dried, 30 first-instars of rice brown planthopper were released on the rice plant, which was kept in the green house at 25° C. for six days. Thereafter, the number of rice brown planthopper parasitic on rice plant was counted and the control value was calculated by the following equation. Control value(%)={1−(Cb×Tai)/(Cai×Tb)}×100 wherein each character represents the following meaning: Cb: number of insects in non-treated section before treatment Cai: number of insects in non-treated section during observation Tb: number of insects in treated section before treatment Tai: number of insects in treated section during observation

cotton aphids [6] = experiment: Test Example 8 and Comparative Test Example: 200 ppm diluent scattered on cucumber seedling inoculated with cotton aphids; conditions: 200 ppm active ingredient, 10 ml scattered on cucumber seedling, counted five days after scattering
[7] = 500 ppm, 5 ml plant foot irrigation, urethane mat, aphids inoculated one day after treatment, counted seven days after
[8] = 500 ppm, 5 ml plant foot irrigation, plastic cup, aphids inoculated after seven days at 25° C., counted six days after
[9] = 500 ppm, 5 ml plant foot irrigation of rice seedling, first-instars released after seven days, counted six days after
[10] = 100 ppm, 5 ml on tissue paper with budding soybeans, ten insects, counted seven days after releasing, read-out: Mortality
[11] = 500 ppm, 10 ml scattered on rice plant seedling, 30 first-instars released, counted after six days at 25° C.
[12] = 500 ppm, 10 ml/cup scattered on tomato seedling at larvae stage, counted after seven days at 25° C.

Work on `FC(F)(F)c1ccc2oc(-c3ccncc3)nc2c1` [active compound 13, 2-(pyridin-4-yl)-5-(trifluoromethyl)benzoxazole] yielded a pest or weed control at 500 ppm (cotton aphids [1]) of no less than 90% and a mortality at 100 ppm (halymorpha halys) of no less than 80%.

For `[O-][n+]1ccc(-c2nc3cc(C(F)(F)F)ccc3o2)cc1` [active compound 14, 4-[5-(trifluoromethyl)benzoxazole-2-yl]pyridine N-oxide], the pest or weed control at 500 ppm (cotton aphids [2]; [7]) was no less than 90%, the pest or weed control at 500 ppm (cotton aphids [1]; [8]) was no less than 90% and the pest or weed control at 500 ppm (rice brown planthopper [3]; [9]) was no less than 90%.

In the case of `FC(F)(F)c1ccc2nc(-c3ccncc3)oc2c1` [active compound 15, 2-(pyridin-4-yl)-6-(trifluoromethyl)benzoxazole], the mortality at 100 ppm (halymorpha halys; [10]) is reported as no less than 80%.

`FC(F)(F)c1ccc2oc(-c3ccncc3Cl)nc2c1` [active compound 18, 2-(3-chloropyridin-4-yl)-5-(trifluoromethyl)benzoxazole] gave a pest or weed control at 500 ppm (cotton aphids [2]) of no less than 90%, a pest or weed control at 500 ppm (rice brown planthopper [3]) of no less than 90% and a mortality at 100 ppm (halymorpha halys) of no less than 80%.

`[O-][n+]1ccc(-c2nc3cc(C(F)(F)F)ccc3o2)c(I)c1` [active compound 30, 3-iode-4-[5-(trifluoromethyl)benzoxazole-2-yl]pyridine N-oxide] showed a pest or weed control at 500 ppm (cotton aphids [2]; [7]) of no less than 90%, a pest or weed control at 500 ppm (cotton aphids [1]; [8]) of no less than 90% and a pest or weed control at 500 ppm (rice brown planthopper [3]; [9]) of no less than 90%.

Molecule `CCc1cnccc1-c1nc2cc(C(F)(F)F)ccc2o1` [active compound 35, 2-(3-ethylpyridin-4-yl)-5-(trifluoromethyl)benzoxazole] has a pest or weed control at 500 ppm [4] of no less than 90%, a pest or weed control at 500 ppm (cotton aphids [2]) of no less than 90% and a pest or weed control at 500 ppm (tobacco whitefly) of no less than 90%. For the same molecule, the pest or weed control at 500 ppm (rice brown planthopper [5]) was no less than 90%, the pest or weed control at 500 ppm (rice brown planthopper [3]) was no less than 90% and the mortality at 100 ppm (halymorpha halys) was no less than 80%.

`COc1cnccc1-c1nc2cc(C(F)(F)F)ccc2o1` [active compound 37, 2-(3-methoxypyridin-4-yl)-5-(trifluoromethyl)benzoxazole] was tested, and the pest or weed control at 500 ppm [4] was no less than 90%, the pest or weed control at 500 ppm (cotton aphids [2]) was no less than 90% and the pest or weed control at 500 ppm (cotton aphids [1]) was no less than 90%. For the same molecule, the pest or weed control at 500 ppm (tobacco whitefly) was no less than 90%, the pest or weed control at 500 ppm (rice brown planthopper [3]) was no less than 90% and the mortality at 100 ppm (halymorpha halys) was no less than 80%.

`CC(C)(C)Sc1cnccc1-c1nc2cc(C(F)(F)F)ccc2o1` [active compound 44, 2-(3-tert-butylthiopyridin-4-yl)-5-(trifluoromethyl)benzoxazole] was tested, and the pest or weed control at 500 ppm (rice brown planthopper [3]) was no less than 90% and the mortality at 100 ppm (halymorpha halys) was no less than 80%.

`FC(F)(F)c1ccc2oc(-c3ccncc3-n3cccn3)nc2c1` [active compound 58, 2-[3-(pyrazole-1-yl)pyridin-4-yl]-5-(trifluoromethyl)benzoxazole] gave a pest or weed control at 500 ppm (cotton aphids [2]; [7]) of no less than 90%, a pest or weed control at 500 ppm (cotton aphids [1]; [8]) of no less than 90% and a pest or weed control at 500 ppm (rice brown planthopper [5]; [11]) of no less than 90%. For the same molecule, the pest or weed control at 500 ppm (rice brown planthopper [3]; [9]) was no less than 90%.

`FC(F)(F)c1ccc2oc(-c3ccncc3-n3cncn3)nc2c1` [active compound 63, 2-[3-(1,2,4-triazole-1-yl)pyridin-4-yl]-5-(trifluoromethyl)benzoxazole] gave a pest or weed control at 500 ppm (cotton aphids [2]; [7]) of no less than 90%, a pest or weed control at 500 ppm (cotton aphids [1]; [8]) of no less than 90% and a pest or weed control at 500 ppm (tobacco whitefly; [12]) of no less than 90%.

In the case of `FC(F)(F)C(F)(F)c1ccc2oc(-c3ccncc3)nc2c1` [active compound 65, 5-(pentafluoroethyl)-2-(pyridin-4-yl)-benzoxazole], the mortality at 100 ppm (halymorpha halys; [10]) is reported as no less than 80%.

`FC(F)(F)C(F)(c1ccc2oc(-c3ccncc3Cl)nc2c1)C(F)(F)F` [active compound 68, 2-(3-chloropyridin-4-yl)-5-(heptafluoroisopropyl)benzoxazole] showed a pest or weed control at 500 ppm (rice brown planthopper [5]; [11]) of no less than 90% and a mortality at 100 ppm (halymorpha halys; [10]) of no less than 80%.

With `CC(=O)Nc1cnccc1-c1nc2cc(C(F)(F)F)ccc2o1` [active compound 82, N-[4-(5-trifluoromethylbenzoxazole-2-yl)pyridin-3-yl]acetamide] the mortality at 100 ppm (halymorpha halys; [10]) was no less than 80%.

`FC(F)(F)c1ccc2oc(-c3ccncc3C(F)(F)F)nc2c1` [active compound 125, 5-trifluoromethyl-2-[3-(trifluoromethyl)pyridin-4-yl]-benzoxazole] gave a pest or weed control at 500 ppm ([4]; 500 ppm active ingredient, 10 ml scattered on cucumber seedling, counted five days after scattering) of no less than 90%, a pest or weed control at 500 ppm (cotton aphids [2]; [7]) of no less than 90% and a pest or weed control at 500 ppm (cotton aphids [1]; [8]) of no less than 90%. For the same molecule, the pest or weed control at 500 ppm (tobacco whitefly; [12]) was no less than 90% and the pest or weed control at 500 ppm (rice brown planthopper [3]; [9]) was no less than 90%.

For `c1ccc2oc(-c3ccncc3)nc2c1` [comparative compound (B)], the Control value (cotton aphids [6]) was “less than 30%”.
